Reference: US20250313535A1, “ALPHA 4 BETA 7 INTEGRIN MODULATORS AND USES THEREOF” (DICE MOLECULES SV, INC., priority 2022, published 2025)

Columns and labels:
[1] = biological target: α4β1 integrin (Homo sapiens (Human), UniProt P05556+P13612); assay: Integrin Adhesion Assay: Protocol 2 (VCAM-coated plate, Jurkat cells, CellTiter GLO readout); type: cell-based; details: determined by at least one of the assays described (protocol not specified)
Method: α4β7 and α4β1 inhibition was evaluated in vitro using at least one of the following procedures:
Integrin Adhesion Assay: Protocol 2
VCAM (R&D Systems, 0.1 ug) was diluted in 50 μL PBS, added to each well of an opaque ELISA plate (Thermo), and incubated overnight at 4° C. Coated plates were washed once with PBS and then blocked with 200 μL of assay buffer (10 mM HEPES, 150 mM NaCl, 1 mM MnCl2, 0.1 mM CaCl2), 1% BSA) for 1 hour at 37° C. and 5% CO2. After incubation, buffer was aspirated from the plates and 50 μL of fresh assay buffer was added. Compounds were added by compounds dispenser (Tecan) and DMSO concentration was normalized to 1% across each plate. 50 μL of Jurkat cells (2×10^6 per mL) were added to each well and the plates were incubated for 1 hour at 37° C. and 5% CO2. After incubation, plates were allowed to cool to RT for 10 minutes before being washed four times in assay buffer by an automated plate washer (BioTek). After washing, 100 μL of a 1:1 mixture of assay buffer and CellTiter GLO 2.0 reagent (Promega) were added to each well. Plates were mixed for 2 minutes at 1000 rpm and then allowed to incubate an additional 10 minutes before reading out luminescence on a Tecan Spark plate reader. Raw data was converted to percent inhibition based on DMSO only and control compound wells, and curves were analyzed by 4-parameter fit within Dotmatics software.

[2] = biological target: α4β7 integrin (Homo sapiens (Human), UniProt P13612+P26010); assay: Integrin Adhesion Assay: Protocol 1 (MAdCAM-coated plate, RPMI-8866 cells, CellTiter GLO readout); type: cell-based; details: integrin adhesion assay; determined by at least one of the assays described (protocol not specified)
α4β7 integrin, sequence (P13612 34-1032): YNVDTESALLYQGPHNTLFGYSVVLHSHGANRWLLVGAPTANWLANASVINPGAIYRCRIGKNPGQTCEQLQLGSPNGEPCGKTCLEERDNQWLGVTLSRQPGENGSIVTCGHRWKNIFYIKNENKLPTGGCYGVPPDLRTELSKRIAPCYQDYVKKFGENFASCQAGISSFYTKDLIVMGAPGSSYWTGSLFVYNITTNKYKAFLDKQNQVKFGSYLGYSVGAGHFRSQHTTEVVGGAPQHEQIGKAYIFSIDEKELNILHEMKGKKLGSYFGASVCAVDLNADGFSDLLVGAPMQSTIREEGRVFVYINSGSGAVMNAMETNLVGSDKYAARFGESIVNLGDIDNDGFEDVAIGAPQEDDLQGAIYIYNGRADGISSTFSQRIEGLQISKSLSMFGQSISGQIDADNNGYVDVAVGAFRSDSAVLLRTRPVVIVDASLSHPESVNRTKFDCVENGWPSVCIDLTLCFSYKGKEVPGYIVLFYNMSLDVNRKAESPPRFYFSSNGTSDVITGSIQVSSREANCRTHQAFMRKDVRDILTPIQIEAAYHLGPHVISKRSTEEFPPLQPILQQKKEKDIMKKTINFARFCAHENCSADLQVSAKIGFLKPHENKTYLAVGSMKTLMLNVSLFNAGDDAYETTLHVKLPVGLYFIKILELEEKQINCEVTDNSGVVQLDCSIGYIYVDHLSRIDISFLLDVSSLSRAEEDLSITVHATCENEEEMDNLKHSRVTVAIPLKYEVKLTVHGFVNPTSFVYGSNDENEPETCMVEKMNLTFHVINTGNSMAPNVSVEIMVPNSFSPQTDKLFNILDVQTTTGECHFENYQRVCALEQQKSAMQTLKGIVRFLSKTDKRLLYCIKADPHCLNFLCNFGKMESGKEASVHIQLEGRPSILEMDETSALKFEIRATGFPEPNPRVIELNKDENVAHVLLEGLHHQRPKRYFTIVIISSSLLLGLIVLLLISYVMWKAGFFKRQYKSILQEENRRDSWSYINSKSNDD
α4β7 integrin, sequence (P26010 20-798): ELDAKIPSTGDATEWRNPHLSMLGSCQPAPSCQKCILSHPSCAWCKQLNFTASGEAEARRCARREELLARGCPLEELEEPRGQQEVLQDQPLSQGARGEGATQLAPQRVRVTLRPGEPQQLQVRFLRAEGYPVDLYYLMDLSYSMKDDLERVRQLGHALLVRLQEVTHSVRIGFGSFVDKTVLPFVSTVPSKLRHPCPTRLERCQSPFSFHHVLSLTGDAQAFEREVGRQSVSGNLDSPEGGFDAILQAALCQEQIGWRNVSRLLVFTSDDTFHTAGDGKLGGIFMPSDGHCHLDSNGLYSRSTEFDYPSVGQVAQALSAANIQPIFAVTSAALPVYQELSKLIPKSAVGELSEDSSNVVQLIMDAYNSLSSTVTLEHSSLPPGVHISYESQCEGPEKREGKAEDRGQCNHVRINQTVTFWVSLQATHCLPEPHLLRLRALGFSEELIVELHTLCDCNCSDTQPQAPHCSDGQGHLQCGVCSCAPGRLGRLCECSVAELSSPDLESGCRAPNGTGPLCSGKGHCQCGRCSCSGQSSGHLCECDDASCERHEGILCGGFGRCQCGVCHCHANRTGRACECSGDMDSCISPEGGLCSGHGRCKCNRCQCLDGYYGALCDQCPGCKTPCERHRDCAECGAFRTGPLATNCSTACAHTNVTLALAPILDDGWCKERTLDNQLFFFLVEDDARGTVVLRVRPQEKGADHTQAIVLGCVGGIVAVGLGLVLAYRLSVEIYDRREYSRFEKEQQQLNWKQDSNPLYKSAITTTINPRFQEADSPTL
Method in brief: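 RPMI-8866 cells (2×10^6 per mL) added with compounds (1% DMSO) to MAdCAM-coated wells blocked in HEPES/NaCl buffer with 1 mM MnCl2, 0.1 mM CaCl2, 1% BSA; 1 h at 37° C, 5% CO2. After four washes, bound cells read by CellTiter GLO luminescence; % inhibition vs DMSO and control wells, 4-parameter fit.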

α4β1 integrin, sequence (P13612 34-1032): as the sequence (P13612 34-1032) above
α4β1 integrin, sequence (P05556 21-798): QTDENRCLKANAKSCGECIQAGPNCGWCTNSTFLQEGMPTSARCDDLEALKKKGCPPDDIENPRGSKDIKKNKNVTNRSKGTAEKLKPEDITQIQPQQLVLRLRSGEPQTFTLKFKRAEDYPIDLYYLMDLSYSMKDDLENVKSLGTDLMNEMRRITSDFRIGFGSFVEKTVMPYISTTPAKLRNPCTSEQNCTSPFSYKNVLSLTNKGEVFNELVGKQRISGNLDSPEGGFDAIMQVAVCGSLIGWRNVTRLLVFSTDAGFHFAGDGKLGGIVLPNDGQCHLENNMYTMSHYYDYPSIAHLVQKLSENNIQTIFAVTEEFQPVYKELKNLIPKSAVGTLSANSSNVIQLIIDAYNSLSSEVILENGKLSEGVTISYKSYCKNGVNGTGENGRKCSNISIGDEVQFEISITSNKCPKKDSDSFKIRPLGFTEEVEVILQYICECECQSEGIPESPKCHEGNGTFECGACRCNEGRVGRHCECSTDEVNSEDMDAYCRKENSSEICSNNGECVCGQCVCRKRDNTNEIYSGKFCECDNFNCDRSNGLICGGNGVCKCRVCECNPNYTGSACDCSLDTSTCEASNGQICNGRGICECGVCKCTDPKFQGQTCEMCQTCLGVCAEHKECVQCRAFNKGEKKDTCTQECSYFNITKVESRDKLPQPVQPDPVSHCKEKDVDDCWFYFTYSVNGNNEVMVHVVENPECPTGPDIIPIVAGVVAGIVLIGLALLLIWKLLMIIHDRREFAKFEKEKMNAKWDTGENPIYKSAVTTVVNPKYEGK

Row | SMILES | IC50 [1] [nM] | IC50 [2] [nM]
1 | Cn1ccc(=O)n(-c2cccc3c(C[C@H](NC(=O)C(F)(F)Sc4ccc(Cl)cc4Cl)C(=O)O)cccc23)c1=O [Compound 76] | > 1000 | > 1000
2 | O=C(N[C@@H](Cc1cccc2c(-c3cccc4ccncc34)nccc12)C(=O)O)c1c(F)cc(NCC(F)(F)F)cc1CN1CCCC1 [Compound 256] | > 1000 | 10 to 100
3 | Cn1ccc(=O)n(-c2cccc3c(C[C@H](NC(=O)c4c(F)cc(NCC(F)(F)F)cc4F)C(=O)O)cccc23)c1=O [Compound 114] | > 1000 | < 10
4 | Cn1ccc(=O)n(-c2cccc3c(C[C@H](NC(=O)c4ccc(C(=O)N5CCc6ccccc6C5)nc4)C(=O)O)cccc23)c1=O [Compound 25] | > 1000 | > 1000
5 | O=C(N[C@@H](Cc1cccc2c(-c3nccc4ccncc34)cccc12)C(=O)O)c1c(F)cc(CN2CCC2)cc1F [Compound 37] | > 1000 | > 1000
6 | Cn1ccc(C(F)(F)F)c(-c2nccc3c(C[C@H](NC(=O)c4cc(F)cc(CSc5ccccc5)c4)C(=O)O)cccc23)c1=O [Compound 229] | > 1000 | > 1000
7 | O=C(N[C@@H](Cc1cccc2c(-c3nccc4ccncc34)cccc12)C(=O)O)c1c(F)cc(N2CCOC[C@H]2CC(F)F)cc1F [Compound 140] | > 1000 | 100 to 1000
8 | C[C@H]1COCCN1c1cc(F)c(C(=O)N[C@@H](Cc2cccc3c(-c4c(C(F)(F)F)ccn(C)c4=O)nccc23)C(=O)O)c(F)c1 [Compound 216] | > 1000 | 10 to 100
9 | CN1CCN(Cc2cc(N3CCOC[C@@H]3C(F)(F)F)cc(F)c2C(=O)N[C@@H](Cc2cccc3c(-c4c(C(F)(F)F)ccn(C)c4=O)nccc23)C(=O)O)CC1 [Compound 248] | > 1000 | < 10
10 | Cn1ccc(C(F)(F)F)c(-c2nccc3c(C[C@H](NC(=O)c4c(CN5CCOCC5)cc(N5CCOC[C@@H]5C(F)(F)F)cc4C(F)(F)F)C(=O)O)cccc23)c1=O [Compound 227] | > 1000 | > 1000
11 | CN(C)CCc1cc(=O)n(-c2cccc3c(C[C@H](NC(=O)c4c(F)cccc4F)C(=O)O)cccc23)c(=O)n1C [Compound 116] | > 1000 | 10 to 100
12 | Cn1ccc(=O)n(-c2cccc3c(C[C@H](NC(=O)C4(C#N)CCN(CC(F)(F)F)CC4)C(=O)O)cccc23)c1=O [Compound 163] | > 1000 | 10 to 100
13 | O=C(N[C@@H](Cc1cccc2c(-c3cccc4ccncc34)cccc12)C(=O)O)c1c(F)cc(NCC(F)(F)F)cc1CN1CCCC1 [Compound 150] | > 1000 | < 10
14 | CN([C@H](CCC(=O)O)C(=O)N[C@@H](Cc1cccc2c(-n3c(=O)ccn(C)c3=O)cccc12)C(=O)O)S(=O)(=O)c1ccccc1 [Compound 72] | > 1000 | 100 to 1000
15 | COc1ccc(F)c(C(=O)N[C@@H](Cc2cccc3c(-n4c(=O)ccn(C)c4=O)cccc23)C(=O)O)c1F [Compound 138] | > 1000 | 10 to 100
16 | Cn1ccc(=O)n(-c2cccc3c(C[C@H](NC(=O)C4(C)CCN(CC(F)F)CC4)C(=O)O)cccc23)c1=O [Compound 58] | > 1000 | 10 to 100
17 | Cn1cc(CCO)c(=O)n(-c2cccc3c(C[C@H](NC(=O)c4c(F)cccc4F)C(=O)O)cccc23)c1=O [Compound 137] | > 1000 | 10 to 100
18 | Cn1ccc(=O)n(-c2cccc3c(C[C@H](NC(=O)c4cc(C(=O)NCCCCN)n(-c5ccccc5)n4)C(=O)O)cccc23)c1=O [Compound 45] | > 1000 | > 1000
19 | Cn1ccc(=O)n(-c2cccc3c(C[C@H](NCc4ccccc4)C(=O)O)cccc23)c1=O [Compound 69] | > 1000 | > 1000
20 | Cn1ccc(C(F)(F)F)c(-c2nccc3c(C[C@H](NC(=O)c4c(F)cc(N5CCOC[C@@H]5C(F)(F)F)cc4CN4CCOCC4)C(=O)O)cccc23)c1=O [Compound 245] | > 1000 | < 10
21 | C/C=C/c1cn(C)c(=O)n(-c2cccc3c(C[C@H](NC(=O)c4c(F)cccc4F)C(=O)O)cccc23)c1=O [Compound 141] | > 1000 | 10 to 100
22 | Cn1ccc(C(F)(F)F)c(-c2nccc3c(C[C@H](NC(=O)c4c(F)cc5nc(CC(F)(F)F)[nH]c5c4F)C(=O)O)cccc23)c1=O [Compound 213] | > 1000 | 10 to 100
23 | Cn1ccc(=O)n(-c2cccc3c(C[C@H](NC(=O)[C@@H]4C[C@H]5CC[C@@H](C4)N5CC(F)(F)F)C(=O)O)cccc23)c1=O [Compound 166] | > 1000 | > 1000
24 | O=C(N[C@@H](Cc1cccc2c(-c3cccc4ccncc34)nccc12)C(=O)O)c1c(F)cc(N(CC(F)(F)F)CC(F)(F)F)cc1CN1CCCC1 [Compound 222] | > 1000 | < 10
25 | Cn1ccc(=O)n(-c2cccc3c(C[C@H](NC(=O)[C@@H]4CCCN4c4ccccc4C#N)C(=O)O)cccc23)c1=O [Compound 79] | > 1000 | 10 to 100
26 | O=C(N[C@@H](Cc1cccc2c(-c3cccc4ccncc34)cccc12)C(=O)O)c1c(F)cc(N2CCOC[C@@H]2C(F)(F)F)cc1F [Compound 47] | > 1000 | 10 to 100
27 | Cn1ccc(=O)n(-c2cccc3c(C[C@H](NC(=O)c4c(Cl)cccc4Cl)C(=O)O)cccc23)c1=O [Compound 14] | > 1000 | < 10
28 | O=C(N[C@@H](Cc1cccc2c(-c3cccc4ccncc34)nccc12)C(=O)O)c1c(F)cc(N2CCOC[C@@H]2C(F)(F)F)cc1F [Compound 220] | > 1000 | 10 to 100

Second part, the compound after the results:

Row | IC50 [1] [nM] | IC50 [2] [nM] | SMILES
29 | 100 to 1000 | < 10 | Cn1ccc(=O)n(-c2cccc3c(C[C@H](NC(=O)c4c(F)cc5nn(CC(F)(F)F)cc5c4F)C(=O)O)cccc23)c1=O [Compound 15]
30 | > 1000 | > 1000 | O=C(N[C@@H](Cc1cccc2c(-c3cccc4ccncc34)nccc12)C(=O)O)c1c(F)cc(CN2CCOCC2)cc1F [Compound 223]
31 | > 1000 | > 1000 | CCN1CCC(C(=O)N[C@@H](Cc2cccc3c(-n4c(=O)ccn(C)c4=O)cccc23)C(=O)O)CC1 [Compound 36]
32 | > 1000 | > 1000 | Cc1ccccc1-c1cccc(C(F)(F)C(=O)N[C@@H](Cc2cccc3c(-n4c(=O)ccn(C)c4=O)cccc23)C(=O)O)c1 [Compound 179]
33 | > 1000 | < 10 | O=C(N[C@@H](Cc1cccc2c(-c3nccc4ccncc34)cccc12)C(=O)O)c1c(F)cc(N2CCOC[C@H]2CC(F)F)cc1CN1CCOCC1 [Compound 146]
34 | > 1000 | > 1000 | Cn1ccc(=O)n(-c2cccc3c(C[C@H](NCc4c(F)cccc4F)C(=O)O)cccc23)c1=O [Compound 68]
35 | > 1000 | 10 to 100 | CC(C)N1CCC(C)(C(=O)N[C@@H](Cc2cccc3c(-n4c(=O)ccn(C)c4=O)cccc23)C(=O)O)CC1 [Compound 57]
36 | > 1000 | 100 to 1000 | CC(=O)N1CCC(C)(C(=O)N[C@@H](Cc2cccc3c(-n4c(=O)ccn(C)c4=O)cccc23)C(=O)O)CC1 [Compound 50]
37 | > 1000 | 10 to 100 | Cn1ccc(=O)n(-c2cccc3c(C[C@H](NC(=O)c4c(F)cccc4CN4CCC4)C(=O)O)cccc23)c1=O [Compound 7]
38 | > 1000 | 10 to 100 | Cn1ccc(=O)n(-c2cccc3c(C[C@H](NC(=O)c4c(F)cc(N5CCOC[C@H]5C(F)(F)F)cc4F)C(=O)O)cccc23)c1=O [Compound 170]
39 | > 1000 | < 10 | Cn1ccc(=O)n(-c2cccc3c(C[C@H](NC(=O)c4c(F)cc(NS(=O)(=O)c5ccccc5)cc4F)C(=O)O)cccc23)c1=O [Compound 9]
40 | 100 to 1000 | < 10 | CCOCc1cc(OC)c(-c2cccc3c(C[C@H](NC(=O)c4c(F)cc(N5CCOC[C@@H]5C(F)(F)F)cc4F)C(=O)O)cccc23)c(OC)c1 [Compound 171]
41 | 100 to 1000 | 10 to 100 | Cn1ccc(=O)n(-c2cccc3c(C[C@H](NC(=O)c4c(F)cc(C#N)cc4F)C(=O)O)cccc23)c1=O [Compound 131]
42 | 100 to 1000 | < 10 | Cn1ccc(=O)n(-c2cccc3c(C[C@H](NC(=O)c4c(F)ccc(NS(=O)(=O)C(F)(F)F)c4F)C(=O)O)cccc23)c1=O [Compound 12]
43 | 100 to 1000 | < 10 | Cn1ccc(=O)n(-c2cccc3c(C[C@H](NC(=O)c4c(F)cc(N5CCOC[C@@H]5C(F)(F)F)cc4CN4CCOCC4)C(=O)O)cccc23)c1=O [Compound 20]
44 | 100 to 1000 | 10 to 100 | CCc1ccc(F)c(C(=O)N[C@@H](Cc2cccc3c(-n4c(=O)ccn(C)c4=O)cccc23)C(=O)O)c1F [Compound 139]
45 | 100 to 1000 | 10 to 100 | Cn1ccc(=O)n(-c2cccc3c(C[C@H](NC(=O)c4c(F)cc5cn(CC(F)(F)F)nc5c4F)C(=O)O)cccc23)c1=O [Compound 144]
